Publication PMC4628894 (Bioorganic & medicinal chemistry letters, 2015)
Where two headings read alike, the source gives them in different places.

Tests used:
rat brain CRF1 receptor = settings: read-out: IC50, rat brain CRF1 receptor; previous report; cited from earlier work
human CRF1 receptor = target: T1, human CRF1 receptor (Homo sapiens, UniProt P34998); type: binding; settings: for fold loss of binding affinity at CRF1 relative to 2: compared to compound 2; for fold gain in binding affinity at CRF1 relative to 17: compared to compound 17; for fold increase in binding affinity at CRF1 relative to 21: compared to compound 21
T1 sequence (P34998 24-415): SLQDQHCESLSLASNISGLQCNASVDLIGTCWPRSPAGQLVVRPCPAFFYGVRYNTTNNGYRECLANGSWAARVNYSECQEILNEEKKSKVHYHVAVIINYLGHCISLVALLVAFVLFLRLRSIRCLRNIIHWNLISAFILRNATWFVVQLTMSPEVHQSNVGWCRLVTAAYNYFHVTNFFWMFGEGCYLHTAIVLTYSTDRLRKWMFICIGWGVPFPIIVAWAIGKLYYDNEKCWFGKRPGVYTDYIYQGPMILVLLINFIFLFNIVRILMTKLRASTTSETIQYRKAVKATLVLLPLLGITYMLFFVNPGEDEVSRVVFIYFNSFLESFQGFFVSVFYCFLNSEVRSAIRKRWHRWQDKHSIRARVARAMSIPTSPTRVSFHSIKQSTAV

CRF1 receptor = settings: read-out: Ki for the CRF1 receptor, previously reported, cited from earlier work

Row | SMILES | IC50 (rat brain CRF1 receptor) [nM] | fold increase in binding affinity at CRF1 relative to 21 (human CRF1 receptor) | also measured
1 | CCCCN(CC)c1cc(C)nc2c1NC(=O)CN2c1ccc(C(C)C)cc1Br [Compound 2] | 0.7 | – | –
2 | CCCCN(CC)c1cc(C)nc2c1NC(=O)CN2c1ccc(Cl)cc1Cl [Compound 6] | 0.49 | – | –
3 | CCCCN(CC)c1cc(C)nc2c1NC(=O)CN2c1ccc(OC)cc1C [Compound 9] | 0.92 | – | –
4 | Cc1cc(N(C)C)c2c(n1)N(c1ccc(C(C)C)cc1Br)CC(=O)N2 [Compound 17] | – | – | fold loss of binding affinity at CRF1 relative to 2 (human CRF1 receptor): ~ 75 fold
5 | CCN(C)c1cc(C)nc2c1NC(=O)CN2c1ccc(C(C)C)cc1Br [Compound 18] | – | – | fold loss of binding affinity at CRF1 relative to 2 (human CRF1 receptor): ~ 6.8 fold; fold gain in binding affinity at CRF1 relative to 17 (human CRF1 receptor): ~ 11 fold
6 | Cc1cc(N(C)C)c2c(n1)N(c1ccc(C(C)C)cc1Br)CC(=O)N2CCF [Compound 21] | – | – | fold gain in binding affinity at CRF1 relative to 17 (human CRF1 receptor): ~ 3 fold
7 | CCN(CC)c1cc(C)nc2c1N(CCF)C(=O)CN2c1ccc(C(C)C)cc1Br [Compound 22] | – | ~ 8 fold | –
8 | Cc1cc(N(C)C)c2c(n1)N(c1ccc(C(C)C)cc1Br)CC(=O)N2C/C=C/CF [Compound 23] | – | ~ 4 fold | –
9 | Cc1cc(N(C)C)c2c(n1)N(c1ccc(C(C)C)cc1Br)CC(=O)N2CCCCF [Compound 24] | – | ~ 2.7 fold | –
10 | CCCN(CCC)c1cc(C)nc2c(-c3cnc(N(C)C)cc3C)c(C)nn12 [Compound R121919] | – | – | Ki (CRF1 receptor; ref 26): 3.5 nM; Ki (CRF1 receptor; ref 27): 3 ± 0.16 nM
